Results: paper PMC8949366, “Synthesis of Marine Cyclopeptide Galaxamide Analogues as Potential Anticancer Agents” (Marine Drugs, 2022)
In brackets after ≈: the same amount, converted by molar mass. Several values for one entry are separate records, joined by “and”; a condition that tells them apart may be missing. Equal entries are not always repeated. Entries after “also recorded” stand apart in the source; their conditions may differ. Where two headings read alike, the source gives them in different places. Square brackets hold non-standard residues; d marks the D form. Peptide text beside a SMILES is read from it.

Experiments:
[1] = amide bond, 15-membered ring, PyBOP/DIEA, DCM, 0.375 mM, 25.0 °C
[2] = test system: MD-MBA-231; type: cell-based, human; conditions: 72 h
Description: (§1) Cell culture: MCF-7/MD-MAB-231 (human breast cancer cell line ATCC HTB-22/HTB-26), Hep G2 (human liver cancer cell line ATCC HB-8065), Hela (human cervical carcinoma cell line ATCC CCL-2), A459 (human lung cancer cell line ATCC CCL-185), and HUVEC (primary umbilical vein endothelial cell line ATCC PCS-100-010) were obtained from the Jinan Department of Pathology, University School of Medicine (Jinan University, Guangzhou, China). The cells were cultured in a Modified Eagle’s Medium (DMEM) including 10% fetal bovine serum, 1% penicillin-streptomycin, and antifungal agent, and cultured under standard conditions (5% CO2 atmosphere and temperature at 37 °C). The MTT method was used to evaluate the cytotoxicities of galaxamide and its analogues on the five cancerous cells. In this experiment, the number of regulated cells was 2 × 10^3 cells/well. Then, the cells, as well as galaxamide and its analogues of different concentrations (0, 2.5, 5, and 10 μg/mL), were seeded on a 96-well cell culture plate and cultured in a 37 °C, 5% CO2 incubator for 72 h. After that, 20 µL/well of MTT solution (5 mg/mL phosphate-buffered saline) was added and incubated for 5 h. The medium was discarded and replaced with 100 µL/well of DMSO to dissolve the formazan salt. The color intensity of the cell culture at 570 nm was measured using a microplate spectrophotometer (SpectroAma™ 250, Winooski, VT, USA).

[3] = test system: HUVEC; type: cell-based, human; conditions: 72 h
Description: as §1

[4] = test system: Hela; type: cell-based, human; conditions: 72 h
Description: as §1

[5] = test system: MCF-7; type: cell-based, human; conditions: 72 h
Description: as §1

[6] = test system: HepG2; type: cell-based, human; conditions: 72 h
Description: as §1

[7] = test system: A549; type: cell-based, human; conditions: 72 h
Description: as §1

[8] = test system: MCF-7 cells; experiment: Hoechst 33,342 staining of nuclear morphology; type: cell-based, human; conditions: 72 h
Description: The morphological alteration of MCF-7 cells was analyzed by the method of Hoechst 33,342 staining (Figure 5). […] The pyknotic nuclei increased with the increasing concentration of these compounds.
[…] After that, the cell culture was washed with 1 mL of PBS and then added with 3 mL of 4% paraformaldehyde solution for 15 min. Then, 1 mL of the prepared Hoechst 33,342 staining solution was added. The resulting mixture was incubated at room temperature for 15 min in the dark.

[9] = test system: MCF-7 cells; experiment: Annexin V-FITC/PI double staining apoptosis, flow cytometry; type: cell-based, human; conditions: 0, 2.5, 5, 10 µg/mL, 72 h
Description: The Annexin V-FITC/PI double staining method was used to analyze the changes in the apoptosis of MCF-7 cells after 72 h of galaxamide, Z-3, and Z-6 exposure. […] At low concentrations, the effects of all the tested compounds were not obvious. When the concentration reached 10 μg/mL, the apoptotic effects of galaxamide, Z-3, and Z-6 on MCF-7 cells were more obvious in the late apoptotic state.
(§2) The concentration of 1 × 10^4 cells per well of MCF-7 cells were seeded in 96-well plates. The cell cultures were added to the compounds with a concentration of 0, 2.5, 5, and 10 µg/mL, and incubated for 72 h. After that, 5 µL of Annexin V-fluorescein isothiocyanate (FITC) and 5 µL of PI were added for dual staining of the cells for analysis by FACS flow cytometry. Cell cycles and apoptotic cells were determined by counting the FITC-positive and PI-negative fractions.
The apoptotic cells were quantified according to the instructions provided in an Annexin V-FITC (Sigma-Aldrich, St. Louis, MO, USA) cell apoptosis assay kit. Briefly, about 1.5 × 10^5 cells were plated in 96-well plates and treated with galaxamide and its representative analogues (0, 2.5, 5, and 10 µg/mL) for 48 h. The cells were then resuspended in a […] binding buffer. Afterward, […] of annexin V-fluorescein isothiocyanate (FITC) was added, followed by incubation in darkness at room temperature for 10 min. The cells were again resuspended in […] binding buffer and stained with […] PI. The prepared cells were then analyzed using a flow cytometry (Coulter Epics Elite, Miami, FL, USA). The cells in the FITC-positive and PI-negative fractions were regarded as apoptotic cells.

[10] = test system: MCF-7 cells; experiment: Cell cycle distribution by propidium iodide staining / flow cytometry; type: cell-based, human; conditions: 0, 2.5, 5, 10 µg/mL, 72 h
Description: Therefore, propidium iodide (PI) staining method was used to further investigate the changes in the cell cycle distribution of MCF-7. In particular, MCF-7 cells were exposed to galaxamide, Z-3, and Z-6 with concentrations of 0, 2.5, 5, and 10 µg/mL for 72 h. Generally, the main effects of galaxamide, Z-3, and Z-6 on MCF-7 cells were in the G0/G1 phase. There was no obvious sub diploid peak in flow cytometry.
as §2

SMILES | IC50 MD-MBA-231 [2] [µg/mL] | IC50 HUVEC [3] [µg/mL] | IC50 Hela [4] [µg/mL] | IC50 MCF-7 [5] [µg/mL] | IC50 HepG2 [6] [µg/mL] | IC50 A549 [7] [µg/mL] | also measured
CC(C)C[C@@H]1NC(=O)[C@H](CC(C)C)N(C)C(=O)[C@H](CC(C)C)NC(=O)[C@@H]2CCCN2C(=O)[C@H](CC(C)C)NC1=O [Cyclo (Leu-N-Me-Leu-Leu-Pro-Leu)] |  |  |  |  |  |  | ring closure, yield after HPLC ([1]; from H-Leu-Pro-Leu-MeLeu-Leu-OH): 40.7%
CC(C)C[C@@H]1NC(=O)[C@@H]2CCCN2C(=O)[C@@H](CC(C)C)NC(=O)[C@@H](CC(C)C)NC(=O)[C@@H]2CCCN2C1=O [Cyclo (D-Leu-Pro-Leu-Pro-D-Leu)] |  |  |  |  |  |  | ring closure, yield after HPLC ([1]; from H-dLeu-Pro-Leu-Pro-dLeu-OH?): 34.5%
CC(C)C[C@@H]1NC(=O)[C@@H]2CCCN2C(=O)[C@H](CC(C)C)NC(=O)[C@@H]2CCCN2C(=O)[C@@H](CC(C)C)NC1=O [Cyclo (Leu-Pro-Leu-Pro-D-Leu)] |  |  |  |  |  |  | ring closure, yield after HPLC ([1]; from H-dLeu-Pro-Leu-Pro-Leu-OH?): 58.9%
CC(C)C[C@@H]1NC(=O)[C@@H]2CCCN2C(=O)[C@H](CC(C)C)NC(=O)[C@@H]2CCCN2C(=O)[C@@H](CC(C)C)NC1=O [Compound Z-4, Cyclo (Leu-Pro-D-Leu-Pro-Leu)] (cyclo(LPL[dL]P)) | 22.09 ± 1.12 (≈ 41.4 µM) | >40 | 7.38 ± 0.83 (≈ 13.8 µM) | 4.88 ± 0.58 (≈ 9.14 µM) | 15.23 ± 1.14 (≈ 28.5 µM) | 9.85 ± 0.95 (≈ 18.5 µM) | 
CC(C)C[C@H]1NC(=O)[C@@H]2CCCN2C(=O)[C@@H](CC(C)C)NC(=O)[C@@H]2CCCN2C(=O)[C@@H](CC(C)C)NC1=O [Cyclo (D-Leu-Pro-D-Leu-Pro-D-Leu)] |  |  |  |  |  |  | ring closure, yield after HPLC ([1]; from H-dLeu-Pro-dLeu-Pro-dLeu-OH?): 46.2%
CC(C)C[C@@H]1NC(=O)[C@@H](CC(C)C)NC(=O)[C@@H]2CCCN2C(=O)[C@H](CC(C)C)NC(=O)[C@@H]2CCCN2C1=O [Compound Z-3, Cyclo (Leu-Pro-Leu-Pro-Leu)] (cyclo(LPLP[dL])) | 6.34 ± 0.60 (≈ 11.9 µM) | >40 | 5.57 ± 0.45 (≈ 10.4 µM) | 2.25 ± 0.42 (≈ 4.22 µM) | 5.05 ± 0.45 (≈ 9.46 µM) | 6.43 ± 0.43 (≈ 12 µM) | Nuclear morphology of MCF-7 cells (in words) [8]: the morphology of the nuclei was significantly changed; Apoptosis of MCF-7 cells (in words) [9]: significantly higher than those of galaxamide; also recorded: concentration-dependent apoptosis; Effect on cell cycle of MCF-7 (in words) [10]: mainly blocked the growth of cells in the G0/G1 phase
CC(C)C[C@@H]1NC(=O)[C@@H]2CCCN2C(=O)[C@@H](CC(C)C)NC(=O)[C@@H]2CCCN2C(=O)[C@@H](CC(C)C)NC1=O [Cyclo (Leu-Pro-D-Leu-Pro-D-Leu)] |  |  |  |  |  |  | ring closure, yield after HPLC ([1]; from H-dLeu-Pro-dLeu-Pro-Leu-OH?): 54.6%
CC(C)C[C@@H]1NC(=O)[C@H](CC(C)C)N(C)C(=O)[C@H](CC(C)C)NC(=O)[C@@H]2CCCN2C(=O)[C@H](CC(C)C)NC1=O [Compound Z-1, Cyclo (Leu-N-Me-Leu-Leu-Pro-Leu)] | 17.81 ± 0.60 (≈ 31.6 µM) | >40 | 11.56 ± 0.65 (≈ 20.5 µM) | 5.85 ± 1.28 (≈ 10.4 µM) | 7.57 ± 0.17 (≈ 13.4 µM) | 4.92 ± 0.84 (≈ 8.73 µM) | 
CC(C)C[C@@H]1NC(=O)[C@@H]2CCCN2C(=O)[C@@H](CC(C)C)NC(=O)[C@@H](CC(C)C)NC(=O)[C@@H]2CCCN2C1=O [Compound Z-6, Cyclo (D-Leu-Pro-Leu-Pro-D-Leu)] (cyclo(LP[dL][dL]P)) | 4.59 ± 0.27 (≈ 8.6 µM) | 38.72 ± 0.67 (≈ 72.5 µM) | 5.69 ± 0.37 (≈ 10.7 µM) | 1.65 ± 0.30 (≈ 3.09 µM) | 2.91 ± 0.17 (≈ 5.45 µM) | 5.96 ± 0.41 (≈ 11.2 µM) | Nuclear morphology of MCF-7 cells (in words) [8]: the morphology of the nuclei was significantly changed; Apoptosis of MCF-7 cells (in words) [9]: significantly higher than those of galaxamide; also recorded: concentration-dependent apoptosis; Effect on cell cycle of MCF-7 (in words) [10]: mainly blocked the growth of cells in the G0/G1 phase
CC(C)C[C@@H]1NC(=O)[C@@H]2CCCN2C(=O)[C@@H](CC(C)C)NC(=O)[C@@H]2CCCN2C(=O)[C@@H](CC(C)C)NC1=O [Compound Z-7, Cyclo (Leu-Pro-D-Leu-Pro-D-Leu)] (cyclo(L[dL]P[dL]P)) | 16.52 ± 1.70 (≈ 31 µM) | >40 | 18.21 ± 1.35 (≈ 34.1 µM) | 13.28 ± 3.28 (≈ 24.9 µM) | 13.85 ± 1.99 (≈ 26 µM) | 9.97 ± 1.00 (≈ 18.7 µM) | 
CC(C)C[C@H]1NC(=O)[C@@H]2CCCN2C(=O)[C@@H](CC(C)C)NC(=O)[C@@H]2CCCN2C(=O)[C@@H](CC(C)C)NC1=O [Compound Z-8, Cyclo (D-Leu-Pro-D-Leu-Pro-D-Leu)] (cyclo(P[dL]P[dL][dL])) | 20.16 ± 2.24 (≈ 37.8 µM) | >40 | 7.97 ± 0.61 (≈ 14.9 µM) | 7.82 ± 1.18 (≈ 14.7 µM) | 9.00 ± 0.83 (≈ 16.9 µM) | 15.88 ± 1.42 (≈ 29.8 µM) | 
CC(C)C[C@@H]1NC(=O)[C@@H]2CCCN2C(=O)[C@H](CC(C)C)NC(=O)[C@@H]2CCCN2C(=O)[C@H](CC(C)C)NC1=O [Cyclo (Leu-Pro-Leu-Pro-Leu)] |  |  |  |  |  |  | ring closure, yield after HPLC ([1]; from H-Leu-Pro-Leu-Pro-Leu-OH?): 35.5% and 53.9%
CC(C)C[C@@H]1NC(=O)[C@@H]2CCCN2C(=O)[C@@H](CC(C)C)NC(=O)[C@@H]2CCCN2C(=O)[C@H](CC(C)C)NC1=O [Compound Z-5, Cyclo (Leu-Pro-Leu-Pro-D-Leu)] (cyclo(LLP[dL]P)) | 8.48 ± 1.12 (≈ 15.9 µM) | >40 | 12.12 ± 0.95 (≈ 22.7 µM) | 13.43 ± 1.96 (≈ 25.2 µM) | 14.98 ± 0.93 (≈ 28.1 µM) | 9.50 ± 1.13 (≈ 17.8 µM) | 
CC(C)C[C@@H]1NC(=O)[C@@H]2CCCN2C(=O)[C@H](CC(C)C)NC(=O)[C@@H]2CCCN2C(=O)[C@H](CC(C)C)NC1=O [Compound Z-2, Cyclo (Leu-Pro-Leu-Pro-Leu)] (cyclo(LLPLP)) | 14.45 ± 1.10 (≈ 27.1 µM) | >40 | 14.50 ± 0.36 (≈ 27.2 µM) | 4.68 ± 1.22 (≈ 8.77 µM) | 11.95 ± 0.64 (≈ 22.4 µM) | 7.97 ± 2.06 (≈ 14.9 µM) | 
CC(C)C[C@@H]1NC(=O)[C@@H]2CCCN2C(=O)[C@@H](CC(C)C)NC(=O)[C@@H]2CCCN2C(=O)[C@H](CC(C)C)NC1=O [Cyclo (Leu-Pro-D-Leu-Pro-Leu)] |  |  |  |  |  |  | ring closure, yield after HPLC ([1]; from H-Leu-Pro-dLeu-Pro-Leu-OH?): 36.4%
